pIC50: −log10 of the molar value. Read-outs that look alike come from different tables or passages of the source.
How the values were obtained:
Format in all cases: biochemical
MAGL = molecular target: T1, MAGL (Homo sapiens, UniProt Q99685); experiment: In vitro competitive activity-based protein profiling (FP-Rh or HT-01 probe, gel-based); design: IC50 MGLL PC3 (Human, μM) / IC50 MGLL PFC (Human, μM): scale not given here; conditions: for % Inh MGLL PFC (Human, μM) / % Inh MGLL PC3 (Human, μM): concentration not given (μM)
T1 construct: Proteomes (human prefrontal cortex or cell membrane fractions); from tissue
T1 sequence (Q99685 1-303): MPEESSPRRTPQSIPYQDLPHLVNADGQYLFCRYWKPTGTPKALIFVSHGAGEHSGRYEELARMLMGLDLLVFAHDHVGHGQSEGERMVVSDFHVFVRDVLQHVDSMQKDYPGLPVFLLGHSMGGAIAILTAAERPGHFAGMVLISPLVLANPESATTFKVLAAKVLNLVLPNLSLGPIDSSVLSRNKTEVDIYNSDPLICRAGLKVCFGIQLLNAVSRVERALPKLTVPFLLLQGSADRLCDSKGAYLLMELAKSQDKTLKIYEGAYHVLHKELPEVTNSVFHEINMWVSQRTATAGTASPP
How it was run: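 Human prefrontal cortex or cell membrane proteomes (1.0 mg/mL total protein) were preincubated with varying inhibitor concentrations for 30 min at 37° C. FP-Rh or HT-01 probe (50 μM DMSO stock) was then added for 30 min at room temperature, and samples were quenched in SDS loading buffer and resolved by SDS-PAGE.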

MGLL = molecular target: T2, MGLL (Mus musculus, UniProt O35678); experiment: In vitro competitive activity-based protein profiling, mouse brain proteome (MGLL); conditions: concentration not given (μM)
T2 construct: Brain; from tissue; host or cells: mouse brain proteome
T2 sequence (O35678 1-303): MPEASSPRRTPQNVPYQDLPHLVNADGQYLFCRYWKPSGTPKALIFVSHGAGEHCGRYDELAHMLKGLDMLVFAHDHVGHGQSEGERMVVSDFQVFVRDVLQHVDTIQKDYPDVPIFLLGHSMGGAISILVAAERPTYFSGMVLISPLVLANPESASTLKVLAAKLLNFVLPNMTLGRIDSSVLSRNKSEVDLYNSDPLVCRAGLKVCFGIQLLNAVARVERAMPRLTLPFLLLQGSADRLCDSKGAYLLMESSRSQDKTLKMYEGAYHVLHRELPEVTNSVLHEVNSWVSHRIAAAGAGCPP

ABHD6 = molecular target: T3, ABHD6 (Mus musculus, UniProt Q8R2Y0); experiment: In vitro competitive activity-based protein profiling, mouse brain proteome (ABHD6); conditions: mouse brain proteome; concentration not given (μM)
T3 construct: Brain; from tissue; host or cells: mouse brain proteome
T3 sequence (Q8R2Y0 1-336): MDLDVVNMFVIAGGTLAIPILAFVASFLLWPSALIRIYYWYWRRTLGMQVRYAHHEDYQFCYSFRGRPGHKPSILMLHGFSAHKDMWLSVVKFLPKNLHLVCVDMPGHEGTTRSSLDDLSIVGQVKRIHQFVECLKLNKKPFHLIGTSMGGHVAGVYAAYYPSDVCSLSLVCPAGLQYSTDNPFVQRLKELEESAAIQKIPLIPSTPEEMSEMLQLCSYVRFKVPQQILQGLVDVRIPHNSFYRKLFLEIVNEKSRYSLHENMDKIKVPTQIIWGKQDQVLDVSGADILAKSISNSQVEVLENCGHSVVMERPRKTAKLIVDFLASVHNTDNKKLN
Description: [The source words this procedure for another target and reports this target under the same test.] In Vitro Competitive Activity-Based Protein Profiling.
Proteomes (human prefrontal cortex or cell membrane fractions) (50 μL, 1.0 mg/mL total protein concentration) were preincubated with varying concentrations of inhibitors at 37° C. After 30 min, FP-Rh or HT-01 (1.0 μL, 50 μM in DMSO) was added and the mixture was incubated for another 30 min at room temperature. Reactions were quenched with SDS loading buffer (15 μL-4×) and run on SDS-PAGE.

[1] = prefrontal cortex (PFC) proteome

Row | % Inh MGLL PFC (Human, μM) (MAGL; [1]) | % Inh MGLL Brain (Mouse, μM) (MGLL) | % Inh ABHD6 Brain (Mouse, μM) (ABHD6) | IC50 MGLL PC3 (Human, μM) (MAGL; PC3 cell proteome) | % Inh MGLL PC3 (Human, μM) (MAGL; PC3 cell proteome) | pIC50 (MAGL; prefrontal cortex (PFC) proteome, read-out: IC50 MGLL PFC (Human)) | pIC50 (MAGL; PC3 cell proteome, read-out: IC50 MGLL PC3 (Human)) | SMILES
1 | ### (### is ≥75%) | ### (### is ≥75%) | ### (### is ≥75%) |  |  |  |  | O=C(O)C1CN(c2cc(CN3CC4(CCN(C(=O)OC(C(F)(F)F)C(F)(F)F)CC4)C3)cc(C(F)(F)F)c2)CCO1 (stereo not shown) [Example 100, 4-(3-((7-(((1,1,1,3,3,3-Hexafluoropropan-2-yl)oxy)carbonyl)-2,7-diazaspiro[3,5]nonan-2-yl)methyl)-5-(trifluoromethyl)phenyl)morph-oline-2-carboxylic acid]
2 | ### (### is ≥75%) | ### (### is ≥75%) | ### (### is ≥75%) |  |  |  |  | O=C(O)C1CCCCN1c1cc(CN2CC3(CCN(C(=O)OC(C(F)(F)F)C(F)(F)F)CC3)C2)cc(C(F)(F)F)c1 (stereo not drawn) [Example 120, l-(3-((7-(((1,1,1,3,3,3-Hexafluoropropan-2-yl)oxy)carbonyl)-2,7-diazaspiro[3,5]nonan-2-yl)methyl)-5-(trifluoromethyl)phenvl)piperidine-2-carboxylic acid]
3 |  | ### (### is ≥75%) | # (# is ≤25%) | * * * | ### (### is ≥75%) |  |  | CN(Cc1cccc(Cl)c1C1(C(=O)O)CCCC1)C1(C)CCN(C(=O)OC(C(F)(F)F)C(F)(F)F)CC1 [Example 9, 1-(2-Chloro-6-(((1-(((1,1,1,3,3,3-hexafluoropropan-2-yl)oxy)carbonyl)-4-methylpiperidin-4-yl)(methyl)amino)methyl)phenyl)cyclopentane-1-carboxylic acid]
4 | ### (### is ≥75%) | ### (### is ≥75%) | ## (## is between 25 and 75%) | * * * |  |  |  | CN(Cc1ccc(C(F)(F)F)cc1-c1nnn[nH]1)C1(C)CCN(C(=O)OC(C(F)(F)F)C(F)(F)F)CC1 [Example 24, 1,1,1,3,3,3-Hexafluoropropan-2-yl 4-((2-(1H-tetrazol-5-yl)-4-(trifluoromethyl)benzyl)(methyl)amino)-4-methylpiperidine-1-carboxylate]
5 | # (# is ≤25%) | ## (## is between 25 and 75%) | # (# is ≤25%) |  |  |  |  | O=C(O)C1CCN(Cc2cc(CN3CCC4(CC3)CCN(C(=O)OC(C(F)(F)F)C(F)(F)F)C4)ccc2Cl)CC1 [Example 224, l-(2-Chloro-5-((2-(((1,1,1,3,3,3-hexafluoropropan-2-yl)oxy)carbonyl)-2,8-diazaspiro[4.5]decan-8-yl)methyl)benzyl)piperidine-4-carboxylic acid]
6 |  | ### (### is ≥75%) | ## (## is between 25 and 75%) |  | ### (### is ≥75%) |  |  | CC1(OCc2ccc(Cl)cc2C2(C(=O)O)CCCC2)CCN(C(=O)OC(C(F)(F)F)C(F)(F)F)CC1 [Example 146, 1-(5-Chloro-2-{[(1-{[(1,1,1,3,3,3-hexafluoropropan-2-yl)oxy]carbonyl}-4-methylpiperidin-4-yl)oxy]methyl}phenyl) cyclopentane-1-carboxylic acid]
7 |  | ### (### is ≥75%) | # (# is ≤25%) |  | ### (### is ≥75%) | > 7.00 |  | O=C(O)C1CCCN1C1CCN(c2cc(C(F)(F)F)ccc2CN2CCCC23CCN(C(=O)OC(C(F)(F)F)C(F)(F)F)CC3)CC1 (stereo not shown) [Example 159]
8 |  | ### (### is ≥75%) | # (# is ≤25%) |  | ### (### is ≥75%) |  |  | O=C(OC(C(F)(F)F)C(F)(F)F)N1CCC2(CCCN2Cc2cc(Cl)cc(C3(C(=O)O)CCCC3)c2)CC1 [Example 134, l-{3-Chloro-5-[(8-{[(1,1,1,3,3,3-hexafluoropropan-2-yl)oxy]carbonyl}-1,8-diazaspiro[4.5]decan-1-yl)methyl]phenyl}cyclopentane-1-carboxylic acid]
9 | ### (### is ≥75%) | # (# is ≤25%) | # (# is ≤25%) |  |  |  |  | O=C(O)C1CCCCN1c1cc(C(F)(F)F)ccc1CN1CC2(CCN(C(=O)OC(C(F)(F)F)C(F)(F)F)CC2)C1 (stereo not shown) [Example 23, 1-(2-((7-(((1,1,1,3,3,3-Hexafluoropropan-2-yl)oxy)carbonyl)-2,7-diazaspiro[3.5]nonan-2-yl)methyl)-5-(trifluoromethyl)phenyl)piperidine-2-carboxylic acid]
10 | ### (### is ≥75%) | ### (### is ≥75%) | ### (### is ≥75%) |  |  |  |  | O=C(O)C1CCN(c2cc(C(F)(F)F)ccc2CN2CC3(CCN(C(=O)OC(C(F)(F)F)C(F)(F)F)CC3)C2)C1 (stereo not drawn) [Example 101, l-(2-((7-(((1,1,1,3,3,3-Hexafluoropropan-2-yl)oxy)carbonyl)-2,7-diazaspiro[3,5]nonan-2-yl)methyl)-5-(trifluoromethyl)phenyl)pyrroli-dine-3-carboxylic acid]
11 |  | ### (### is ≥75%) | # (# is ≤25%) |  | ### (### is ≥75%) |  | > 7.00 | O=C(O)[C@H]1CCCN1C1CCN(c2cc(C(F)(F)F)ccc2CN2CCCC23CCN(C(=O)OC(C(F)(F)F)C(F)(F)F)CC3)CC1 [Example 160, (1-(2-((8-(((1,1,1,3,3,3-Hexafluoropropan-2-yl)oxy)carbonyl)-1,8-diazaspiro[4.5]decan-l-yl)methyl)-5-(trifluoromethyl)phenyl)piperidin-4-yl)-D-proline]
12 | ### (### is ≥75%) | ### (### is ≥75%) | # (# is ≤25%) |  |  |  |  | CC1(N(CC(=O)O)Cc2ccc(C(F)(F)F)cc2N2CCOCC2)CCN(C(=O)OC(C(F)(F)F)C(F)(F)F)CC1 [Example 124, N-(1-(((1,1,1,3,3,3-Hexafluoropropan-2-yl)oxy)cart>onyl)-4-methylpiperidin-4-yl)-N-(2-morpholino-4-(trifluoromethyl)benzyl) glycine]
13 |  | ### (### is ≥75%) | # (# is ≤25%) |  | ### (### is ≥75%) |  |  | CN(Cc1ccc(C(F)(F)F)cc1CN1CCC(C(=O)O)CC1)C1(C)CCN(C(=O)OC(C(F)(F)F)C(F)(F)F)CC1 [Example 137, l-(2-(((1-(((1,1,1,3,3,3-Hexafluoropropan-2-yl)oxy)carbonyl)-4-methylpiperidin-4-yl)(methyl)amino)methyl)-5-(trifluoromethyl)benzyl)piperidine-4-carboxylic acid]
14 |  | ### (### is ≥75%) | ### (### is ≥75%) |  | ### (### is ≥75%) |  |  | CC(C)(C#Cc1cc(CN2CCCC23CCN(C(=O)OC(C(F)(F)F)C(F)(F)F)CC3)cc(C(F)(F)F)c1)C(=O)O [Example 140, 4-{3-[(8-{[(1,1,1,3,3,3-Hexafluoropropan-2-yl)oxy]carbonyl}-1,8-diazaspiro[4.5]decan-1-yl)methyl]-5-(trifluoromethyl)phenyl}-2,2-dimethylbut-3-ynoic acid]
15 | ### (### is ≥75%) | ### (### is ≥75%) | ### (### is ≥75%) |  |  |  |  | O=C(O)C1CCN(c2cc(CN3CC4(CCN(C(=O)OC(C(F)(F)F)C(F)(F)F)CC4)C3)cc(C(F)(F)F)c2)C1 (stereo not drawn) [Example 104, l-(3-((7-(((1,1,1,3,3,3-Hexailuoropropan-2-yl)oxy)carbonyl)-2,7-diazaspiro[3.5]nonan-2-yl)methyl)-5-(trifluoromethyl)phenyl) pyrrolidine-3-carboxylic acid]
